Reference: patent publication US10065950B2, “Substituted thiazoles as HIV integrase inhibitors” (Japan Tobacco Inc., priority 2010, dated 2018)

Target: HIV-1 pNL4-3 integrase (Human immunodeficiency virus type 1 group M subtype B (isolate NY5) (HIV-1), UniProt P12497)
Assay: Determination of enzyme (HIV integrase) inhibitory activity
Assay type: biochemical
Conditions: calculated from inhibition rate (fluorescence)
Procedure, shortened: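 Full-length pNL4-3 integrase from E. coli (0.75 μM stock) reacted 60 min at 37° C with compound and biotinylated donor DNA bound to streptavidin plates, in MOPS buffer with 5 mM MgCl2 and 10% DMSO. Digoxigenin-labelled target DNA (25 nM stock) then added for 20 min; strand transfer read by peroxidase anti-digoxigenin fluorescence (Ex 325/Em 420 nm).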

Structure (SMILES)	IC50 [nM]
CC(C)N1C[C@H](C)n2cc(-c3nnc(Cc4ccc(F)cc4F)s3)c(=O)c(O)c2C1=O [Example 149]	5.9
COC[C@@H]1Cn2cc(-c3nnc(Cc4ccc(F)c(F)c4)s3)c(=O)c(O)c2C(=O)N1C(C)C [Example 150]	6.1
CC(=O)CC1CN(C(C)C)C(=O)c2c(O)c(=O)c(-c3ncc(Cc4ccc(F)cc4F)s3)cn21 (centres unmarked) [Example 151]	5.4
CC(C)N1CC(C)(C(=O)N(C)C)n2cc(-c3ncc(Cc4ccc(F)cc4F)s3)c(=O)c(O)c2C1=O (centres unmarked) [Example 152]	5.9
CCNC(=O)C1(C)CN(C)C(=O)c2c(O)c(=O)c(-c3ncc(Cc4ccc(F)cc4F)s3)cn21 (centres unmarked) [Example 153]	5.8
CC(C)N1C(=O)c2c(O)c(=O)c(-c3nnc(Cc4ccc(F)cc4F)s3)cn2C[C@H]1CN(C)S(C)(=O)=O [Example 154]	7.3
COCCOC[C@H]1CN(C(C)C)C(=O)c2c(O)c(=O)c(-c3nnc(Cc4ccc(F)c(F)c4)s3)cn21 [Example 155]	10
CC(C)N1C(=O)c2c(O)c(=O)c(-c3nnc(Cc4ccc(F)cc4F)s3)cn2C[C@H]1C [Example 156]	4.6
CC(C)N1CC(C)(C(=O)N(C)C)n2cc(-c3nnc(Cc4ccc(F)c(F)c4)s3)c(=O)c(O)c2C1=O (centres unmarked) [Example 157]	29
CC(C)N1C(=O)c2c(O)c(=O)c(-c3nnc(Cc4ccc(F)cc4F)s3)cn2C[C@H]1CNS(C)(=O)=O [Example 158]	5.4
CC(C)C(=O)N(C)C[C@@H]1Cn2cc(-c3nnc(Cc4ccc(F)cc4F)s3)c(=O)c(O)c2C(=O)N1C(C)C [Example 159]	6.6
CNC(=O)C1CN(C)C(=O)c2c(O)c(=O)c(-c3ncc(Cc4ccc(F)cc4F)s3)cn21 (centres unmarked) [Example 160]	6.1
CCN(C)C(=O)C1(C)CN(C)C(=O)c2c(O)c(=O)c(-c3ncc(Cc4ccc(F)cc4F)s3)cn21 (centres unmarked) [Example 161]	7.8
CCNC(=O)C1(C)CN(CC)C(=O)c2c(O)c(=O)c(-c3ncc(Cc4ccc(F)cc4F)s3)cn21 (centres unmarked) [Example 162]	7.1
CC(=O)N(C)C[C@@H]1Cn2cc(-c3nnc(Cc4ccc(F)cc4)s3)c(=O)c(O)c2C(=O)N1C(C)C [Example 163]	7.7
CN(C)C(=O)CC1CN(C2CC2)C(=O)c2c(O)c(=O)c(-c3ncc(Cc4ccc(F)cc4F)s3)cn21 (centres unmarked) [Example 164]	6.5
CCNC(=O)CC1CN(C2CC2)C(=O)c2c(O)c(=O)c(-c3ncc(Cc4ccc(F)cc4F)s3)cn21 (centres unmarked) [Example 165]	7.4
CC[C@H](C)N1C[C@@H](COC)n2cc(-c3nnc(Cc4ccc(F)cc4)s3)c(=O)c(O)c2C1=O [Example 166]	12
CC[C@@H](C)N1C[C@@H](COC)n2cc(-c3nnc(Cc4ccc(F)cc4)s3)c(=O)c(O)c2C1=O [Example 167]	10
COC[C@@H]1Cn2cc(-c3ncc(Cc4ccc(F)cc4F)s3)c(=O)c(O)c2C(=O)N1C(C)C [Example 168]	5.8
CC(C)N1C[C@](C)(C(=O)N(C)C)n2cc(-c3nnc(Cc4ccc(F)cc4F)s3)c(=O)c(O)c2C1=O [Example 169]	12
CC(C)N1C[C@](C)(C(=O)N2CCCC2)n2cc(-c3nnc(Cc4ccc(F)cc4F)s3)c(=O)c(O)c2C1=O [Example 170]	12

Structure (SMILES)	IC50 [nM]
CC(C)N1C[C@@](C)(C(=O)N(C)C)n2cc(-c3nnc(Cc4ccc(F)cc4F)s3)c(=O)c(O)c2C1=O [Example 171]	16
CC(C)N1C[C@@](C)(C(=O)N2CCCC2)n2cc(-c3nnc(Cc4ccc(F)cc4F)s3)c(=O)c(O)c2C1=O [Example 172]	14
CCNC(=O)[C@@]1(C)CN(C(C)C)C(=O)c2c(O)c(=O)c(-c3nnc(Cc4ccc(F)cc4F)s3)cn21 [Example 173]	16
CCNC(=O)[C@]1(C)CN(C(C)C)C(=O)c2c(O)c(=O)c(-c3nnc(Cc4ccc(F)cc4F)s3)cn21 [Example 174]	14
CC(C)N1CC2(CC2)n2cc(-c3nnc(Cc4ccc(F)cc4)s3)c(=O)c(O)c2C1=O [Example 175]	9.5
CC(C)N1C(=O)c2c(O)c(=O)c(-c3nnc(Cc4ccc(F)cc4)s3)cn2CC12CC2 [Example 176]	8.5
CC(C)N1C[C@](C)(C(=O)N(C)C)n2cc(-c3nnc(Cc4ccc(F)cc4)s3)c(=O)c(O)c2C1=O [Example 177]	17
CN(C)C(=O)[C@@]1(C)CN(C2CC2)C(=O)c2c(O)c(=O)c(-c3nnc(Cc4ccc(F)cc4)s3)cn21 [Example 178]	20
CC(C)N1C[C@](C)(C(=O)N2CCCC2)n2cc(-c3nnc(Cc4ccc(F)cc4)s3)c(=O)c(O)c2C1=O [Example 179]	19
CCNC(=O)[C@@]1(C)CN(C(C)C)C(=O)c2c(O)c(=O)c(-c3nnc(Cc4ccc(F)cc4)s3)cn21 [Example 180]	10
CN(C)C(=O)[C@@]1(C)CN(C(C)(C)C)C(=O)c2c(O)c(=O)c(-c3nnc(Cc4ccc(F)cc4)s3)cn21 [Example 181]	14
CC(C)N1C(=O)c2c(O)c(=O)c(-c3nnc(Cc4ccc(F)cc4)s3)cn2C[C@H]1CN(C)C(=O)C(C)(C)C [Example 182]	9.7
CCC(C)(C)C(=O)N(C)C[C@@H]1Cn2cc(-c3nnc(Cc4ccc(F)cc4)s3)c(=O)c(O)c2C(=O)N1C(C)C [Example 183]	10
CC(C)N1C(=O)c2c(O)c(=O)c(-c3nnc(Cc4ccc(F)cc4F)s3)cn2C[C@H]1CN(C)C(=O)C(C)(C)C [Example 184]	6
CNC(=O)[C@@]1(C)CN(C(C)C)C(=O)c2c(O)c(=O)c(-c3nnc(Cc4ccc(F)cc4)s3)cn21 [Example 185]	15
CC(C)CNC(=O)[C@@]1(C)CN(C(C)C)C(=O)c2c(O)c(=O)c(-c3nnc(Cc4ccc(F)cc4)s3)cn21 [Example 186]	18
CCNC(=O)[C@@]1(C)CN(C2CC2)C(=O)c2c(O)c(=O)c(-c3nnc(Cc4ccc(F)cc4)s3)cn21 [Example 187]	19
CC(C)(C)N1C[C@](C)(C(=O)N2CCCC2)n2cc(-c3nnc(Cc4ccc(F)cc4)s3)c(=O)c(O)c2C1=O [Example 188]	18
CCNC(=O)[C@@]1(C)CN(C(C)(C)C)C(=O)c2c(O)c(=O)c(-c3nnc(Cc4ccc(F)cc4)s3)cn21 [Example 189]	20
CNC(=O)[C@]1(C)CN(C(C)C)C(=O)c2c(O)c(=O)c(-c3nnc(Cc4ccc(F)cc4F)s3)cn21 [Example 190]	11
CNC(=O)[C@@]1(C)CN(C(C)C)C(=O)c2c(O)c(=O)c(-c3nnc(Cc4ccc(F)cc4F)s3)cn21 [Example 191]	12
CC(C)N1C[C@@H](C(C)(C)C)n2cc(-c3nnc(Cc4ccc(F)cc4)s3)c(=O)c(O)c2C1=O [Example 192]	15

Structure (SMILES)	IC50 [nM]
CC(C)N1C[C@H](C(C)(C)C)n2cc(-c3nnc(Cc4ccc(F)cc4)s3)c(=O)c(O)c2C1=O [Example 193]	11
CC(C)[C@H]1CN(C(C)C)C(=O)c2c(O)c(=O)c(-c3nnc(Cc4ccc(F)cc4)s3)cn21 [Example 194]	8.2
COC[C@@H]1Cn2cc(-c3nnc(Cc4ccc(F)cc4)s3)c(=O)c(O)c2C(=O)N1C1CCC1 [Example 195]	5.9
COC[C@@H]1Cn2cc(-c3nnc(Cc4ccc(F)cc4)s3)c(=O)c(O)c2C(=O)N1C1CCCC1 [Example 196]	6.7
CC(=O)N(C)C[C@@]1(C)CN(C(C)C)C(=O)c2c(O)c(=O)c(-c3nnc(Cc4ccc(F)cc4F)s3)cn21 [Example 197]	14
COC[C@@H]1Cn2cc(-c3nnc(Cc4ccc(F)cc4)s3)c(=O)c(O)c2C(=O)N1C(C)C1CC1 (some centres unmarked) [Example 198]	5.7
CCN1C[C@](C)(C(=O)N(C)C)n2cc(-c3nnc(Cc4ccc(F)cc4)s3)c(=O)c(O)c2C1=O [Example 199]	8.4
CCN1C[C@](C)(C(=O)N2CCCC2)n2cc(-c3nnc(Cc4ccc(F)cc4)s3)c(=O)c(O)c2C1=O [Example 200]	9.6
CCNC(=O)[C@@]1(C)CN(CC)C(=O)c2c(O)c(=O)c(-c3nnc(Cc4ccc(F)cc4)s3)cn21 [Example 201]	9.5
COCCN(C)C(=O)[C@@]1(C)CN(C(C)C)C(=O)c2c(O)c(=O)c(-c3nnc(Cc4ccc(F)cc4)s3)cn21 [Example 202]	13
CC(C)N1C[C@](C)(C(=O)N2CCOCC2)n2cc(-c3nnc(Cc4ccc(F)cc4)s3)c(=O)c(O)c2C1=O [Example 203]	13
CC(C)N1C[C@](C)(C(=O)N2CC[C@H](O)C2)n2cc(-c3nnc(Cc4ccc(F)cc4)s3)c(=O)c(O)c2C1=O [Example 204]	13
CC(C)N1C[C@](C)(C(=O)N2CC[C@@H](O)C2)n2cc(-c3nnc(Cc4ccc(F)cc4)s3)c(=O)c(O)c2C1=O [Example 205]	13
COC[C@@H]1Cn2cc(-c3nnc(Cc4ccc(F)cc4)s3)c(=O)c(O)c2C(=O)N1C(C)C1CC1 (some centres unmarked) [Example 206]	5.9
CCC(=O)N(C)C[C@@]1(C)CN(C(C)C)C(=O)c2c(O)c(=O)c(-c3nnc(Cc4ccc(F)cc4F)s3)cn21 [Example 207]	24
CC(C)N1C[C@](C)(C(=O)N2CC(O)C2)n2cc(-c3nnc(Cc4ccc(F)cc4)s3)c(=O)c(O)c2C1=O [Example 208]	12
COC1CN(C(=O)[C@@]2(C)CN(C(C)C)C(=O)c3c(O)c(=O)c(-c4nnc(Cc5ccc(F)cc5)s4)cn32)C1 [Example 209]	12
CC(C)N1C[C@](C)(CN(C)S(C)(=O)=O)n2cc(-c3nnc(Cc4ccc(F)cc4F)s3)c(=O)c(O)c2C1=O [Example 210]	23
CO[C@@H]1CCN(C(=O)[C@@]2(C)CN(C(C)C)C(=O)c3c(O)c(=O)c(-c4nnc(Cc5ccc(F)cc5)s4)cn32)C1 [Example 211]	16
CO[C@H]1CCN(C(=O)[C@@]2(C)CN(C(C)C)C(=O)c3c(O)c(=O)c(-c4nnc(Cc5ccc(F)cc5)s4)cn32)C1 [Example 212]	14
CO[C@@H]1CCN(C(=O)[C@@]2(C)CN(C(C)C)C(=O)c3c(O)c(=O)c(-c4ncc(Cc5ccc(F)cc5)s4)cn32)C1 [Example 213]	15
